# Legend:
# cotton, variety D&PL 555 [1] = experiment: % defoliation of cotton plants, field trial; assay type: in vivo; conditions: 20% open boll application, 1 replicate
# Protocol: (§1) The trial was performed on cotton, variety D&PL 555. The formulated test compounds were diluted to the appropriate concentrations with water to which a crop oil concentrate (1% to 2% v/v) or a non-ionic surfactant (0.25% v/v) was added. The application of the test composition as a cotton plant growth regulator was performed using pressurized, over-the-top spray equipment consisting of a research scale boom sprayer. Deposit of the test composition was primarily to the top of the cotton plants, minimizing spray deposition to lower branches, leaves and fruit. The finished spray volume was 10 gallons per acre, with sprayer nozzle design, orientation and nozzle pressures chosen to prevent spray drift. Applications were made at first sign of cotton boll opening and at 15%, 20% and 40% open bolls.
# (§2) The experimental design used randomized plots with 1 to 4 treatment rates of test composition and from 1 to 10 replications depending on the test (sees tables below). The size of each experimental plot was about 15 m^2. Testing was performed in Texas, North Carolina, Mississippi and Georgia.
# (§3) Percent desiccation, percent defoliation, percent terminal control and percent open bolls were evaluated at 7 and 14 days after application (DAA) of the test composition. Inspection of cotton plants for insect control of armyworm larvae was performed at 2 DAA and insect damage to bolls was performed at the time of harvest
# Defoliation refers to removal of leaves. Percent defoliation rating approximates the proportion of leaves of all sizes shed per 100 leaves present prior to application of the cotton growth regulator compound. An evaluation of the foliage in the untreated check plots was first undertaken. Then the test plots were individually evaluated. The percent of leaves dropped by the plants in the treated plot was determined using observations within the plot and comparisons to foliage in the untreated plot.
# (§4) The results, shown as the mean of the indicated number of replications, were compared with results observed in the same trials with an untreated control.
# cotton, variety D&PL 555 [2] = experiment: % desiccation of cotton leaves, field trial; assay type: in vivo
# Protocol: as §1, §2, §3
# Desiccation refers to leaves or portions of leaves dried to debris following tissue death. […] An evaluation of the condition of leaves in the untreated check plots were observed. Then the test plots were individually evaluated. The percent of all leaves completely or partially desiccated by the test application were recorded, based upon live leaves and leaf debris within the test plot relative to foliage present in the untreated plot.
# as §4
structure (smiles),measurement,setting,value
"CC1=C(C)S(=O)(=O)CCS1(=O)=O [dimethipin, 2,3-dihydro-5,6-dimethyl-1,4-dithiin-1,1,4,4-tetraoxide]",% Defoliation,"cotton, variety D&PL 555 [1]; 0.23 lb ai/a, 7 DAA",28%
same,% Desiccation,"cotton, variety D&PL 555 [2]; 20% open boll application, 0.23 lb ai/a, 7 DAA, 1 replicate",40%
"CCCCCOC(=O)COc1cc(N2C(=O)C3=C(CCCC3)C2=O)c(F)cc1Cl [flumiclorac-pentyl ester, pentyl [2-chloro-4-fluoro-5-(1,3,4,5,6,7-hexahydro-1,3-dioxo-2H-isoindol-2-yl)phenoxy]acetate]",% Desiccation,"cotton, variety D&PL 555 [2]; first open boll application, 0.027 lb ai/a, 7 DAA, 3 replicates",16%
same,% Desiccation,"cotton, variety D&PL 555 [2]; first open boll application, 0.027 lb ai/a, 14 DAA, 3 replicates",13%
same,% Desiccation,"cotton, variety D&PL 555 [2]; first open boll application, 0.04 lb ai/a, 7 DAA, 3 replicates",19%
same,% Desiccation,"cotton, variety D&PL 555 [2]; first open boll application, 0.04 lb ai/a, 14 DAA, 3 replicates",12%
"COC(=O)CSc1cc(/N=c2\sc(=O)n3n2CCCC3)c(F)cc1Cl [fluthiacet-methyl, methyl [[2-chloro-4-fluoro-5-[(tetrahydro-3-oxo-1H,3H-[1,3,4]thiadiazolo[3,4-a]pyridazin-1-ylidine)amino]phenyl]thio]acetate]",% Desiccation,"cotton, variety D&PL 555 [2]; first open boll application, 0.0018 lb ai/a, 7 DAA, 1 replicate",25%
same,% Desiccation,"cotton, variety D&PL 555 [2]; first open boll application, 0.0018 lb ai/a, 14 DAA, 1 replicate",17%
"CC(C)N.O=C(O)CNCP(=O)(O)O [glyphosate, N-(phosphonomethyl)glycine isopropylamine salt]",% Defoliation,"cotton, variety D&PL 555 [1]; 0.5 lb ai/a, 14 DAA",7%
same,% Desiccation,"cotton, variety D&PL 555 [2]; 20% open boll application, 0.5 lb ai/a, 14 DAA, 1 replicate",67%
"C[n+]1ccc(-c2cc[n+](C)cc2)cc1.[Cl-].[Cl-] [paraquat, 1,1′-dimethyl-4,4′-bipyridinium dichloride]",% Defoliation,"cotton, variety D&PL 555 [1]; 0.13 lb ai/a, 14 DAA",8%
same,% Desiccation,"cotton, variety D&PL 555 [2]; 20% open boll application, 0.13 lb ai/a, 14 DAA, 1 replicate",90%
"CCOC(=O)COc1cc(-c2nn(C)c(OC(F)F)c2Cl)c(F)cc1Cl [pyraflufen-ethyl, ethyl 2-chloro-5-[4-chloro-5-(difluoromethoxy)-1-methyl-1H-pyrazol-3-yl]-4-fluorophenoxyacetate]",% Desiccation,"cotton, variety D&PL 555 [2]; first open boll application, 0.0008 lb ai/a, 7 DAA, 3 replicates",13%
same,% Desiccation,"cotton, variety D&PL 555 [2]; first open boll application, 0.0008 lb ai/a, 14 DAA, 3 replicates",11%
same,% Desiccation,"cotton, variety D&PL 555 [2]; first open boll application, 0.0016 lb ai/a, 7 DAA, 3 replicates",19%
same,% Desiccation,"cotton, variety D&PL 555 [2]; first open boll application, 0.0016 lb ai/a, 14 DAA, 3 replicates",13%
"CCCCSP(=O)(SCCCC)SCCCC [tribufos, S,S,S-tributyl phosphorotrithioate]",% Defoliation,"cotton, variety D&PL 555 [1]; 0.14 lb ai/a, 7 DAA",30%
same,% Desiccation,"cotton, variety D&PL 555 [2]; 20% open boll application, 0.14 lb ai/a, 7 DAA, 1 replicate",78%
